Assays:
Phakopsora pachyrhizi = Phakopsora pachyrhizi / soybean / leaf disc preventative (Asian soybean rust); assay type: in vivo; details: foliar, 200 ppm in the applied formulation, soybean leaf disks, compared to untreated, read-out: disease control
Method: Leaf disks or leaf segments of various plant species are cut from plants grown in a greenhouse. The cut leaf disks or segments are placed in multiwell plates (24-well format) onto water agar. The leaf disks are sprayed with a test solution before (preventative) or after (curative) inoculation. Compounds to be tested are prepared as DMSO solutions (max. 10 mg/ml) which are diluted to the appropriate concentration with 0.025% Tween20 just before spraying. The inoculated leaf disks or segments are incubated under defined conditions (temperature, relative humidity, light, etc.) according to the respective test system. A single evaluation of disease level is carried out 3 to 14 days after inoculation, depending on the pathosystem. Percent disease control relative to the untreated check leaf disks or segments is then calculated.
Soybean leaf disks are placed on water agar in multiwell plates (24-well format) and sprayed with the formulated test compound diluted in water. One day after application leaf discs are inoculated by spraying a spore suspension on the lower leaf surface. After an incubation period in a climate cabinet of 24-36 hours in darkness at 20° C. and 75% rh leaf disc are kept at 20° C. with 12 h light/day and 75% rh. The activity of a compound is assessed as percent disease control compared to untreated when an appropriate level of disease damage appears in untreated check leaf disks (12 to 14 days after application).
The following compounds at 200 ppm in the applied formulation give at least 80% disease control in this test when compared to untreated control leaf disks under the same conditions, which show extensive disease development.

[1] = system: Glomerella lacenarium (Colletotrichum lagenarium); assay: Glomerella lagenarium liquid culture / cucumber / preventative (anthracnose); assay type: cell-based; details: Colletotrichum orbiculare; 20 ppm in the applied formulation; liquid culture (PDB), growth inhibition measured photometrically 3 to 4 days after application; compared to untreated; read-out: disease control
Procedure, shortened: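 Conidia from cryogenic storage were mixed into potato dextrose broth. This was added to compound diluted from DMSO into 0.025% Tween20, tested at 20 ppm. Plates were incubated in the dark at 24 °C and 96% relative humidity, and growth was read photometrically after 2–7 days as % activity versus untreated check.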

[2] = system: Puccinia recondita f. Sp. Tritici; assay: Puccinia recondita f. sp. tritici / wheat / leaf disc curative (brown rust); assay type: in vivo; details: foliar, 24 h, 200 ppm in the applied formulation, wheat leaf segments cv. Kanzler, curative (applied 1 day after inoculation), compared to untreated, read-out: disease control
Procedure, shortened: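 Segments of wheat (cultivar Kanzler) sit on agar and are spore-inoculated first; after one day in darkness at 19° C and 75% RH the diluted formulated compound is sprayed on. A 12 h photoperiod follows at the same temperature and humidity before disease is scored against untreated controls.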

[3] = system: Puccinia recondita f. Sp. Tritici; assay: Puccinia recondita f. sp. tritici / wheat / leaf disc preventative (brown rust); assay type: in vivo; details: foliar, 200 ppm in the applied formulation, wheat leaf segments cv. Kanzler, preventative (inoculated 1 day after application), compared to untreated, read-out: disease control
Procedure, shortened: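 Preventative leaf-segment test: compound at 200 ppm applied by spray to Kanzler wheat, with spore inoculation following after one day. Disease control relative to untreated check read 7 to 9 days post-application, incubation at 19° C., 75% relative humidity, 12 h light/12 h dark.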

C=CCOC(=O)NCc1ccc(-c2noc(C(F)(F)F)n2)cc1 [Compound 2.10, allyl N-[[4-[5-(trifluoromethyl)-1,2,4-oxadiazol-3-yl]phenyl]methyl]carbamate]
≥ 80%: pest or weed control at 200 ppm (Phakopsora pachyrhizi) | inhibition of growth at 20 ppm [1] | pest or weed control at 200 ppm [2] | pest or weed control at 200 ppm [3]

O=C(CC(F)(F)F)NCc1ccc(-c2noc(C(F)(F)F)n2)c(F)c1 [Compound 1.44, 3,3,3-trifluoro-N-[[3-fluoro-4-[5-(trifluoromethyl)-1,2,4-oxadiazol-3-yl]phenyl]methyl]propanamide]
≥ 80%: pest or weed control at 200 ppm (Phakopsora pachyrhizi) | inhibition of growth at 20 ppm [1] | pest or weed control at 200 ppm [2] | pest or weed control at 200 ppm [3]

COCCCC(=O)NCCc1ccc(-c2noc(C(F)(F)F)n2)cc1 [Compound 1.89, 4-methoxy-N-[2-[4-[5-(trifluoromethyl)-1,2,4-oxadiazol-3-yl]phenyl]ethyl]butanamide]
≥ 80%: pest or weed control at 200 ppm (Phakopsora pachyrhizi) | inhibition of growth at 20 ppm [1] | pest or weed control at 200 ppm [2] | pest or weed control at 200 ppm [3]

CCCC(=O)NCc1ccc(-c2noc(C(F)(F)F)n2)cc1F [Compound 1.36, N-[[2-fluoro-4-[5-(trifluoromethyl)-1,2,4-oxadiazol-3-yl]phenyl]methyl]butanamide]
≥ 80%: pest or weed control at 200 ppm (Phakopsora pachyrhizi) | inhibition of growth at 20 ppm [1] | pest or weed control at 200 ppm [2] | pest or weed control at 200 ppm [3]

O=C(CC(F)(F)F)NCc1ccc(-c2noc(C(F)(F)F)n2)cc1F [Compound 1.46, 3,3,3-trifluoro-N-[[2-fluoro-4-[5-(trifluoromethyl)-1,2,4-oxadiazol-3-yl]phenyl]methyl]propanamide]
≥ 80%: pest or weed control at 200 ppm (Phakopsora pachyrhizi) | inhibition of growth at 20 ppm [1] | pest or weed control at 200 ppm [2] | pest or weed control at 200 ppm [3]

CCCC(=O)NCc1ccc(-c2noc(C(F)(F)F)n2)cc1 [Compound 1.10, N-[[4-[5-(trifluoromethyl)-1,2,4-oxadiazol-3-yl]phenyl]methyl]butanamide]
≥ 80%: pest or weed control at 200 ppm (Phakopsora pachyrhizi) | inhibition of growth at 20 ppm [1] | pest or weed control at 200 ppm [2] | pest or weed control at 200 ppm [3]

CC(=O)CC(C)C(=O)NCc1ccc(-c2noc(C(F)(F)F)n2)cc1 (centres unmarked) [Compound 1.9, 2-methyl-4-oxo-N-[[4-[5-(trifluoromethyl)-1,2,4-oxadiazol-3-yl]phenyl]methyl]pentanamide]
≥ 80%: pest or weed control at 200 ppm (Phakopsora pachyrhizi) | inhibition of growth at 20 ppm [1] | pest or weed control at 200 ppm [2] | pest or weed control at 200 ppm [3]

CCCC(=O)NCCc1ccc(-c2noc(C(F)(F)F)n2)cc1 [Compound 1.84, N-[2-[4-[5-(trifluoromethyl)-1,2,4-oxadiazol-3-yl]phenyl]ethyl]butanamide]
≥ 80%: pest or weed control at 200 ppm (Phakopsora pachyrhizi) | inhibition of growth at 20 ppm [1] | pest or weed control at 200 ppm [2] | pest or weed control at 200 ppm [3]

CC=CCC(=O)NCc1ccc(-c2noc(C(F)(F)F)n2)cc1 [Compound 1.14, N-[[4-[5-(trifluoromethyl)-1,2,4-oxadiazol-3-yl]phenyl]methyl]pent-3-enamide]
≥ 80%: pest or weed control at 200 ppm (Phakopsora pachyrhizi) | inhibition of growth at 20 ppm [1] | pest or weed control at 200 ppm [2] | pest or weed control at 200 ppm [3]

CC(C)NC(=O)NCc1ccc(-c2noc(C(F)(F)F)n2)cc1 [Compound 3.9, 1-isopropyl-3-[[4-[5-(trifluoromethyl)-1,2,4-oxadiazol-3-yl]phenyl]methyl]urea]
≥ 80%: pest or weed control at 200 ppm (Phakopsora pachyrhizi) | inhibition of growth at 20 ppm [1] | pest or weed control at 200 ppm [2] | pest or weed control at 200 ppm [3]

COCC(=O)NCc1ccc(-c2noc(C(F)(F)F)n2)cc1F [Compound 1.38, N-[[2-fluoro-4-[5-(trifluoromethyl)-1,2,4-oxadiazol-3-yl]phenyl]methyl]-2-methoxy-acetamide]
≥ 80%: pest or weed control at 200 ppm (Phakopsora pachyrhizi) | inhibition of growth at 20 ppm [1] | pest or weed control at 200 ppm [2] | pest or weed control at 200 ppm [3]

CCCC(=O)NCc1ccc(-c2noc(C(F)(F)F)n2)c(F)c1 [Compound 1.78, N-[[3-fluoro-4-[5-(trifluoromethyl)-1,2,4-oxadiazol-3-yl]phenyl]methyl]butanamide]
≥ 80%: pest or weed control at 200 ppm (Phakopsora pachyrhizi) | inhibition of growth at 20 ppm [1] | pest or weed control at 200 ppm [2] | pest or weed control at 200 ppm [3]

CC(C)(C)CC(=O)NCc1ccc(-c2noc(C(F)(F)F)n2)cc1 [Compound 1.15, 3,3-dimethyl-N-[[4-[5-(trifluoromethyl)-1,2,4-oxadiazol-3-yl]phenyl]methyl]butanamide]
≥ 80%: pest or weed control at 200 ppm (Phakopsora pachyrhizi) | inhibition of growth at 20 ppm [1] | pest or weed control at 200 ppm [2] | pest or weed control at 200 ppm [3]

CC(C)C(=O)NCc1ccc(-c2noc(C(F)(F)F)n2)c(F)c1 [Compound 1.77, N-[[3-fluoro-4-[5-(trifluoromethyl)-1,2,4-oxadiazol-3-yl]phenyl]methyl]-2-methyl-propanamide]
≥ 80%: pest or weed control at 200 ppm (Phakopsora pachyrhizi) | inhibition of growth at 20 ppm [1] | pest or weed control at 200 ppm [2] | pest or weed control at 200 ppm [3]

CC(C)COC(=O)NCc1ccc(-c2noc(C(F)(F)F)n2)cc1 [Compound 2.8, isobutyl N-[[4-[5-(trifluoromethyl)-1,2,4-oxadiazol-3-yl]phenyl]methyl]carbamate]
≥ 80%: pest or weed control at 200 ppm (Phakopsora pachyrhizi) | inhibition of growth at 20 ppm [1] | pest or weed control at 200 ppm [2] | pest or weed control at 200 ppm [3]

C=CCNC(=O)NCc1ccc(-c2noc(C(F)(F)F)n2)cc1 [Compound 3.16, 1-allyl-3-[[4-[5-(trifluoromethyl)-1,2,4-oxadiazol-3-yl]phenyl]methyl]urea]
≥ 80%: pest or weed control at 200 ppm (Phakopsora pachyrhizi) | inhibition of growth at 20 ppm [1] | pest or weed control at 200 ppm [2] | pest or weed control at 200 ppm [3]

CCNC(=O)NCc1ccc(-c2noc(C(F)(F)F)n2)cc1 [Compound 3.10, 1-ethyl-3-[[4-[5-(trifluoromethyl)-1,2,4-oxadiazol-3-yl]phenyl]methyl]urea]
≥ 80%: pest or weed control at 200 ppm (Phakopsora pachyrhizi) | inhibition of growth at 20 ppm [1] | pest or weed control at 200 ppm [2] | pest or weed control at 200 ppm [3]

CCCC(C)(C)C(=O)NCc1ccc(-c2noc(C(F)(F)F)n2)cc1 [Compound 1.4, 2,2-dimethyl-N-[[4-[5-(trifluoromethyl)-1,2,4-oxadiazol-3-yl]phenyl]methyl]pentanamide]
≥ 80%: pest or weed control at 200 ppm (Phakopsora pachyrhizi) | inhibition of growth at 20 ppm [1] | pest or weed control at 200 ppm [2] | pest or weed control at 200 ppm [3]

CC(C)C(=O)NCc1ccc(-c2noc(C(F)(F)F)n2)cc1 [Compound 1.6, 2-methyl-N-[[4-[5-(trifluoromethyl)-1,2,4-oxadiazol-3-yl]phenyl]methyl]propanamide]
≥ 80%: pest or weed control at 200 ppm (Phakopsora pachyrhizi) | inhibition of growth at 20 ppm [1] | pest or weed control at 200 ppm [2] | pest or weed control at 200 ppm [3]

CONC(=O)NCc1ccc(-c2noc(C(F)(F)F)n2)cc1 [Compound 3.17, 1-methoxy-3-[[4-[5-(trifluoromethyl)-1,2,4-oxadiazol-3-yl]phenyl]methyl]urea]
≥ 80%: pest or weed control at 200 ppm (Phakopsora pachyrhizi) | inhibition of growth at 20 ppm [1] | pest or weed control at 200 ppm [2] | pest or weed control at 200 ppm [3]

Reference: patent publication US10501425B2, “Microbiocidal oxadiazole derivatives” (SYNGENTA PARTICIPATIONS AG, priority 2015, dated 2019)
